{
  "source": "patent US20040161426A1",
  "about": "“Use of IL-6 antagonists in combination with steroids to enhance apoptosis” (priority 2003, published 2004)",
  "key": {"RPMI 8226 cells": {"system": "RPMI 8226 cells", "experiment": "Dexamethasone-induced apoptosis, Tunel assay with flow cytometry", "type": "cell-based, human", "conditions": "for % Apoptosis Mean ± SEM: 48 h; for level of apoptosis (cells undergoing apoptosis): representative experiment", "protocol": "The cell line RPMI 8226, a human multiple myeloma cell line, was purchased from ATCC (Rockville, Md.). Cells were grown and maintained according to ATCC instructions in complete RPMI medium containing 10% FBS, 1% NEAA, 1% L-glutamine and 1% sodium pyruvate.\nChimeric CLB8 (cCLB8) (Centocor, Malvern, Pa.) was used at three different concentrations in the assay. Another a chimeric human-mouse IgG, c171A, also developed at Centocor was used as a negative control antibody.\n[…] After the incubation, cells were harvested and the Tunel assay (Tdt-mediated dUTP-FITC nick end labeling) as disclosed in Gavrieli et al., “Identification of Programmed Cell Death in situ Via Specific Labelling of Nuclear DNA Fragmentation”, […] 119:493-501, 1992 was used to measure apoptosis with minor modifications. Briefly, after the 48-hour incubation described above, approximately 10^6 cells were harvested, washed twice, and fixed with 1% paraformaldehyde for 15 minutes. After washing, the cells were permeabilized with 0.1% Triton (Sigma, St. Louis, Mo.) for 5 minutes and washed twice. The labeling reaction was performed in a heating block at 37° C. for 1 hour with 0.3 nM FITC-12-dUTP (Boehringer Mannheim, Indianapolis, Ind.), 2.5 mM CoCI2, 12.5 U Tdt, and 5 microL of 5×Tdt Buffer (Boehringer Mannheim) in a total volume of 50 microL. Cells were analyzed by flow cytometry.\nAfter completing the Tunel assay, cells were washed twice and analyzed on a FACS Calibur flow cytometer (Becton Dickinson Immunocytometry Systems, San Jose, Calif.) equipped with a 15-mW air-cooled 488-nm argon laser. Gating to exclude debris was based upon diminished forward scatter (FSC) and side scatter (SSC). A minimum of 10,000 events was collected per sample and all analyses were performed with CELLQuest software (Becton Dickinson Immunocytometry Systems, San Jose, Calif.)."}, "IL-6": {"target": "T1, IL-6 (Homo sapiens, UniProt P05231)", "T1 construct": "host or cells: patients (endogenous IL-6)", "T1 sequence (P05231 30-212)": "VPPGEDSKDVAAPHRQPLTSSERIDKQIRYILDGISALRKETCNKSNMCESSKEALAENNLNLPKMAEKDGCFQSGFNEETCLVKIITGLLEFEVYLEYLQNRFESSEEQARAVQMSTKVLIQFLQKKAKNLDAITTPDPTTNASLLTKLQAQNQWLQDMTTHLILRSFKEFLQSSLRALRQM", "conditions": "multiple myeloma patients after cCLB8 administration; cited from earlier work"}},
  "data": [
    {"compound": "C[C@@H]1C[C@H]2[C@@H]3CCC4=CC(=O)C=C[C@]4(C)[C@@]3(F)[C@@H](O)C[C@]2(C)[C@@]1(O)C(=O)CO", "note": "[Dexamethasone, reference compound]", "values": [
      {"measurement": "% Apoptosis Mean ± SEM", "setting": "RPMI 8226 cells; RPMI 8226 cells, DEX 10-6 alone", "result": "% 46 ± 4"},
      {"measurement": "% Apoptosis Mean ± SEM", "setting": "RPMI 8226 cells; RPMI 8226 cells, DEX + IL-6 100 pg", "result": "% 27 ± 9"},
      {"measurement": "level of apoptosis (cells undergoing apoptosis)", "setting": "RPMI 8226 cells; FIG. 1A, dexamethasone 1 microM, 48 hrs", "result": 45, "unit": "%"},
      {"measurement": "level of apoptosis (cells undergoing apoptosis)", "setting": "RPMI 8226 cells; FIG. 1B, dexamethasone in the presence of IL-6", "result": 20, "unit": "%"}
    ]},
    {"compound": "IL-6: 22-27 kDa secreted glycoprotein cytokine interleukin 6 [reference compound]", "values": [
      {"measurement": "IL-6 concentration inhibiting dexamethasone-induced apoptosis", "setting": "RPMI 8226 cells; RPMI 8226 cells, dexamethasone 1 microM", "result": "higher than 100 ng/mL"}
    ]},
    {"compound": "cCLB8: chimerized form of the murine anti-IL-6 monoclonal antibody CLB-6/8 (Centocor)", "values": [
      {"measurement": "circulating levels of sIL6R and sgp130", "setting": "IL-6", "result": "remained unchanged"},
      {"measurement": "serum IL-6 activity", "setting": "IL-6", "result": "total blockage of serum IL-6 activity"},
      {"measurement": "% Apoptosis Mean ± SEM", "setting": "RPMI 8226 cells; RPMI 8226 cells, DEX + IL-6 + CNTO 328 100 ng", "result": "% 45 ± 11"},
      {"measurement": "% Apoptosis Mean ± SEM", "setting": "RPMI 8226 cells; RPMI 8226 cells, DEX + IL-6 + CNTO 328 1 ug", "result": "% 54 ± 2.5"},
      {"measurement": "neutralization of the inhibitory effect of IL-6 on dexamethasone-induced apoptosis", "setting": "RPMI 8226 cells; RPMI 8226 cells, P<0.02", "result": "neutralized the inhibitory effect of IL-6 on dexamethasone-induced apoptosis in a dose dependent manner"},
      {"measurement": "promotion of cellular apoptosis, combination versus single agents", "setting": "RPMI 8226 cells; combination of dexamethasone and cCLB8", "result": "superior to treatment with either agent alone"},
      {"measurement": "level of apoptosis (cells undergoing apoptosis)", "setting": "RPMI 8226 cells; FIG. 1C, dexamethasone in the presence of both IL-6 and cCLB8", "result": 60, "unit": "%"}
    ]}
  ]
}
